Laboratory results as given in US6706291B1, “Poultry producibility improver and poultry producibility improvement method” (Taiyo Kagaku Co., Ltd., priority 2001, dated 2004).

Columns and labels:
[1] = tested on: White Cornish edible chickens; test: Test Example 3: cholesterol content of breast meat, leg meat and chicken fat; format: in vivo
Excerpt: (§1) White Cornish edible chickens were bred for 7 weeks from newly-hatched chickens. The hatched chickens were divided into 17 groups, the groups AA to QQ of 200 chickens per group. […] The edible chickens were fed with a commercially available formula feed for edible chickens, and allowed to take feed and water ad libitum. […] The liveability is shown in Table 17 and the weekly body weight gain in Table 18, respectively. […] Furthermore, changes in the TBA value and in the POV value of each of the breast meat, the leg meat and the chicken fat after storage were determined in the same manner. The cholesterol content is shown in Table 19, the change in the K value after storage in Table 20, the change in the TBA value after storage in Table 21, and the change in the POV value after storage in Table 22, respectively.

[2] = tested on: eggs of Isabrown laying hens; test: Test Example 2: DHA, EPA, vitamin E content and Haugh unit of eggs during storage; format: in vivo, chicken; settings: for EPA Content / Haugh Unit / Vitamin E Content / DHA Content: eggs after 4 months; for DHA Content: feed with fish oil and vitamin E
Description: Isabrown laying hens were bred in poultry houses of the windless vertical 2-shelf cage type. Seventeen poultry houses a to q (10,000 hens/poultry house) were set, and a field test concerning suppression of a decrease in highly unsaturated fatty acid content during storage of eggs laid by laying hens was carried out. […] In addition, the laying hens were fed with a feed prepared by adding 2 kg of a fish oil and 10 g of vitamin E to 100 kg of a cormnercially available feed for laying hens. In addition, the laying hens were allowed to take water ad libitum.
After 4 months from initiation of the test, 20 eggs each were collected from each poultry house. DHA content and EPA content of the eggs, as indices for highly unsaturated fatty acid, were determined on the day of collection for 10 of the eggs, and after 2 weeks of storage at 4° C. for the remaining 10 eggs, respectively. Vitamin E content and Haugh unit were also determined. A change in the DHA content, a change in the EPA content, a change in the vitamin E content, and a change in the Haugh unit are shown in Tables 12, 13, 14 and 15, respectively.

[3] = tested on: eggs of White Leghorn laying hens; test: Test Example 1: Haugh unit and vitamin E content of eggs during storage; format: in vivo, chicken; settings: for Haugh Unit / Vitamin E Content: eggs collected after 4 months
Description: Here, the term “Haugh unit” mentioned above refers to an index showing an extent of deterioration of thick albumen and is defined as the numeral calculated using the equation: […]
wherein H is a height (mm) of thick albumen; and W is an egg weight (g).
Furthermore, after 4 months from initiation of the test, 20 eggs each were collected from each poultry house. Haugh unit and vitamin E content were determined on the day of collection for 10 of the eggs, and after 2 weeks of storage at 4° C. for the remaining 10 eggs, respectively.

[4] = tested on: White Cornish edible chickens; test: Test Example 3: K value, TBA value, POV value of chicken meat after storage; format: in vivo; settings: for K Value of Chicken Meat after 10 Days of Storage: storage at 4° C.
Excerpt: In the present invention, the expression “keeping freshness of chicken meat” refers to suppression of an increase during storage in a numerical value, such as K value (ratio of inosine and hypoxanthine content to the sum of ATP, ADP, AMP, IMP, inosine and hypoxanthine contents in chicken meat as expressed in percentage), VBN value (a total amount of volatile basic substances, such as ammonia and trimethylamine, in chicken meat), TMA value (trimethylamine content in chicken meat) and polyamine content (total amount of decarboxylated products of free amino acids, such as putrescine, cadaverine, agmatine, histamine, tyramine, tryptamine and spermidine, in chicken meat), metmyoglobin formation ratio (ratio of myoglobin oxidized to metmyoglobin in muscular tissue of chicken meat), TBA value (ratio of fatty acids oxidized to fatty acids in chicken meat), POV value (peroxide value: ratio of oil or fat oxidized in chicken meat), and bacterial cell count (number of bacterial cells in chicken meat). In the present invention, it is preferable that at least one selected from the group consisting of K value, TBA value and POV value is used as an index for keeping freshness of chicken meat. Because the K value is most generally used as an index for freshness, it is more preferable to use the K value as an index for keeping freshness of chicken meat. White Cornish edible chickens were bred for 7 weeks from newly-hatched chickens. The hatched chickens were divided into 17 groups, the groups AA to QQ of 200 chickens per group. […] The edible chickens were fed with a commercially available formula feed for edible chickens, and allowed to take feed and water ad libitum. […] The liveability is shown in Table 17 and the weekly body weight gain in Table 18, respectively. […] Furthermore, changes in the TBA value and in the POV value of each of the breast meat, the leg meat and the chicken fat after storage were determined in the same manner. The cholesterol content is shown in Table 19, the change in the K value after storage in Table 20, the change in the TBA value after storage in Table 21, and the change in the POV value after storage in Table 22, respectively.

[5] = tested on: White Leghorn laying hens; test: Test Example 1: field test on producibility of laying hens (liveability, egg production indices); format: in vivo, chicken; settings: for Liveability: additive in feed entire breeding period; for Number of Eggs Produced / Weight of Produced Eggs: 30,000 hens/poultry house
Description: White Leghorn laying hens at 121 days of age were housed in poultry houses of the windless vertical 6-shelf cage type and bred therein for 1 year. Eighteen poultry houses A to R (30,000 hens/poultry house) were set, and a field test concerning improvement in producibility by laying hens was carried out.
The laying hens were fed with a commercially available formula feed for laying hens, and allowed to take water ad libitum.
As indices for the producibility, there were obtained a liveability, a rate of laying, each egg weight and a weight of eggs produced per day, each item being at 4 months after initiation of the test, and a total number of eggs produced and a total egg weight during the 4-month period from initiation of the test. The same items were also determined at 8 and 12 months after initiation of the test. […] In the following tables, the indications “4M, 8M, 12M” stand for 4 months, 8 months, and 12 months after initiation of the test, respectively.

[6] = tested on: White Cornish edible chickens; test: Test Example 3: liveability and weekly body weight gain of edible chickens; format: in vivo, chicken
Excerpt: as §1

[7] = After 2 Weeks of Storage at 4° C.
[8] = Immediately After Egg Production

(−)-epigallocatechin gallate
Cholesterol Content ([1]; Breast Meat): 72.0 mg based on 100 g of chicken meat or chicken fat | Cholesterol Content ([1]; Chicken Fat): 227.6 mg based on 100 g of chicken meat or chicken fat | Cholesterol Content ([1]; Leg Meat): 86.0 mg based on 100 g of chicken meat or chicken fat | Effect on decrease in DHA, EPA, vitamin E content and Haugh unit during egg storage, in words ([2]; 2 weeks of storage at 4° C.): no effect was found | EPA Content [2, 7]: 84.0 mg based on 100 g of egg yolk solution | Haugh Unit [2, 7]: 80.9 | Vitamin E Content [2, 7]: 1.7 mg based on 100 g of egg yolk solution | EPA Content [2, 8]: 103.8 mg based on 100 g of egg yolk solution | Haugh Unit [2, 8]: 96.5 | Vitamin E Content [2, 8]: 3.0 mg based on 100 g of egg yolk solution | DHA Content [2, 7]: 1,344.0 mg based on 100 g of egg yolk solution | DHA Content [2, 8]: 1,493.1 mg based on 100 g of egg yolk solution | Effect on decrease in Haugh unit and vitamin E content during egg storage, in words ([3]; 2 weeks of storage at 4° C.): no effect was found | Haugh Unit [3, 7]: 79.9 | Vitamin E Content [3, 7]: 2.0 mg based on 100 g of egg yolk solution | Haugh Unit [3, 8]: 98.0 | Vitamin E Content [3, 8]: 3.1 mg based on 100 g of egg yolk solution | Change in POV Value after 10 Days Storage ([4]; Breast Meat): 1.52 | Change in TBA Value after 10 Days Storage ([4]; Breast Meat): 0.44 | K Value of Chicken Meat after 10 Days of Storage ([4]; Breast Meat): 55.3 | Change in POV Value after 10 Days Storage ([4]; Chicken Fat): 1.80 | Change in TBA Value after 10 Days Storage ([4]; Chicken Fat): 0.42 | Change in POV Value after 10 Days Storage ([4]; Leg Meat): 1.53 | Change in TBA Value after 10 Days Storage ([4]; Leg Meat): 0.40 | K Value of Chicken Meat after 10 Days of Storage ([4]; Leg Meat): 55.4 | Each Egg Weight ([5]; 4M after initiation of test): 58.6 g | Rate of Egg Production ([5]; 4M after initiation of test): 92.3% | Weight of Eggs Produced Per Day ([5]; 4M after initiation of test): 53.97 g | Liveability ([5]; 4M after initiation of test): 98.90% | Number of Eggs Produced ([5]; 4M): 295,589 ct | Weight of Produced Eggs ([5]; 4M): 17,321.5 kg | Each Egg Weight ([5]; 8M after initiation of test): 61.7 g | Rate of Egg Production ([5]; 8M after initiation of test): 82.9% | Weight of Eggs Produced Per Day ([5]; 8M after initiation of test): 51.05 g | Liveability ([5]; 8M after initiation of test): 97.81% | Number of Eggs Produced ([5]; 8M): 714,941 ct | Weight of Produced Eggs ([5]; 8M): 44,111.9 kg | Each Egg Weight ([5]; 12M after initiation of test): 63.1 g | Rate of Egg Production ([5]; 12M after initiation of test): 72.9% | Weight of Eggs Produced Per Day ([5]; 12M after initiation of test): 47.68 g | Liveability ([5]; 12M after initiation of test): 95.02% | Number of Eggs Produced ([5]; 12M): 1,054,111 ct | Weight of Produced Eggs ([5]; 12M): 66,514.4 kg | Effect on producibility indices (liveability, rate of egg production, egg weight, eggs produced), in words ([5]; compared with poultry house Q given only an ordinary feed / houses H to R): an effect of addition of these additives was not found | Weekly Body Weight Gain ([6]; after breeding for 7 weeks): 462.5 g | Liveability ([6]; after breeding for 7 weeks, 200 chickens per group): 96.33% | Effect on liveability, weekly body weight gain, cholesterol content, K, TBA and POV values, in words ([6]; all indices of Test Example 3): no effect was found
